The target of assay [1] is Cyclin-dependent kinase 2/cyclin E (Homo sapiens, UniProt P24941). In words: In vitro inhibition of human CDK2/cyclin E. The format is protein-complex assay.
The target of assay [2] is Cyclin-dependent kinase 1/cyclin B (Homo sapiens, UniProt P06493). Nature of the assay: Inhibitory concentration against CDK1/cyclin B was determined. The assay is classed as protein-complex assay.
Assay [3] concerns the target cAMP-dependent protein kinase (PKA) (Homo sapiens, UniProt P22694+P17612+P22612). Nature of the assay: Inhibition of PKA. The format is protein assay.
Assay [4] has as its target Cyclin-dependent kinase 4/cyclin D (Homo sapiens, UniProt P11802). In words: Inhibition of CDK4/cyclin D was determined. The format is protein-complex assay.
Assay [5] addresses Tyrosine-protein kinase Lck (Homo sapiens, UniProt P06239). In words: Inhibition of LCK.
The target of assay [6] is Cyclin-dependent kinase 7/ cyclin H (Homo sapiens, UniProt P50613). Nature of the assay: Inhibition of CDK7/cyclin H. The assay is classed as protein-complex assay.
In the next assay the target is Protein kinase C (PKC). Nature of the assay: Inhibition of PKC. The format is protein assay.
Another assay concerns A2780. In words: Cytotoxic effect in ovarian cancer cell line (A2780). The assay is classed as functional, cell-based. To be noted: Homo sapiens.

Each structure is given as a SMILES string.

Sequence of Tyrosine-protein kinase Lck (P06239 whole entry): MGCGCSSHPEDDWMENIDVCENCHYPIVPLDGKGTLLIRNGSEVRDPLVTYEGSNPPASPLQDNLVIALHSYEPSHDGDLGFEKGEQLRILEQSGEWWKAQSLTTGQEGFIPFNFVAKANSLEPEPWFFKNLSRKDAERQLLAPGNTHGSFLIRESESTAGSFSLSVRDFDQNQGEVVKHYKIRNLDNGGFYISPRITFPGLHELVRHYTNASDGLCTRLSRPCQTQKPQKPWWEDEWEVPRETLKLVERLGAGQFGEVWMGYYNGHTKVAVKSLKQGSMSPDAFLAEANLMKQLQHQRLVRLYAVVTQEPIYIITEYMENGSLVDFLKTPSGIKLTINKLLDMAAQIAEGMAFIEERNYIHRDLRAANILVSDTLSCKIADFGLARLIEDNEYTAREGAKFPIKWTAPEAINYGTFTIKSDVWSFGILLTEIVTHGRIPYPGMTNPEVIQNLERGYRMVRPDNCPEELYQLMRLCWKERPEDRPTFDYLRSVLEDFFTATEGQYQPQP
Sequence of Cyclin-dependent kinase 7/ cyclin H (P51946 whole entry): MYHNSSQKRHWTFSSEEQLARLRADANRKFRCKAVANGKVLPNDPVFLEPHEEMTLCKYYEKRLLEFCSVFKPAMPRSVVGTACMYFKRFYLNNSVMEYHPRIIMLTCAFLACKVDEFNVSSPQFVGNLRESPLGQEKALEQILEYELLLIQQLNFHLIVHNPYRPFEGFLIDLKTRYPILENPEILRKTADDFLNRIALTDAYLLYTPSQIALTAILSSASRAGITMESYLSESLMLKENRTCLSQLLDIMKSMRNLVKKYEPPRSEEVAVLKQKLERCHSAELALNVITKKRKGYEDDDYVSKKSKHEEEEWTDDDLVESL
Sequence of Cyclin-dependent kinase 7/ cyclin H (P50613 whole entry): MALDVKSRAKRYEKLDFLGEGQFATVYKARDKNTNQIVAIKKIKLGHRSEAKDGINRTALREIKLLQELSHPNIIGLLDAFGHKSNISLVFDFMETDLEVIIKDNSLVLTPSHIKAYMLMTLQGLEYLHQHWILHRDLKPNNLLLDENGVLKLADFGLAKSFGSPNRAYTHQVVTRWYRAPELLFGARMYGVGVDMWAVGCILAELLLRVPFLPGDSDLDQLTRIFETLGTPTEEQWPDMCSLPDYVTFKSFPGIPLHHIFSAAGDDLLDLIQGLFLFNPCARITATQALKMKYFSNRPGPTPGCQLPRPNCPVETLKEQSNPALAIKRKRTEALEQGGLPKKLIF

One may read the IC50 as the concentration needed to halve the response being measured. A higher IC50 goes with weaker potency. Molecule `CCCCN(C)c1c(C(=O)c2ccccc2)cnc2[nH]ncc12` returned an IC50 in assay [1] of over 25000 nM.
With `CCCC(C)Oc1c(C(=O)c2ccccc2)cnc2[nH]ncc12` (stereo not given), the IC50 amounted to 310 nM in assay [2] and 520 nM in assay [1].
As to `O=C(c1ccccc1)c1cnc2[nH]ncc2c1OCc1ccccc1`, the half-maximal inhibitory concentration (IC50) stood at 350 nM in assay [2] and 280 nM in assay [1].
In assay [1], `O=C(c1ccccc1)c1cnc2[nH]ncc2c1OCCO` had an IC50 of 3700 nM.
The same measure, in the same setting: next, `C=C(c1ccccc1)c1c[nH]c2nncc-2c1OCCCC`: over 25000 nM; `CCCCOc1c2cnnc-2[nH]cc1C(O)c1ccccc1` (stereo not given): over 25000 nM; `CCCCSc1c(C(=O)c2ccccc2)cnc2[nH]ncc12`: 4400 nM.
In turn, `CCCCOc1c(Cc2ccccc2)c[nH]c2nncc1-2` showed an IC50 in assay [1] of over 25000 nM.
Take `CCn1ncc2c(OCCC(C)C)c(C(=O)c3ccccc3)cnc21`: the IC50 in assay [1] was over 25000 nM.
In the case of `CCCCCOc1c(C(=O)c2ccccc2)cnc2[nH]ncc12`, the values for the IC50 in assay [2] and in assay [1] were 310 nM and 240 nM, respectively.
Take `O=C(c1ccccc1)c1cnc2[nH]ncc2c1Oc1ccccc1`: in assay [1], half-maximal inhibition (IC50) required 15000 nM.
`CN(C)CCOc1c(C(=O)c2ccccc2)cnc2[nH]ncc12` yielded an IC50 in assay [1] of 17000 nM.
Regarding `CC(C)CCOc1c(C(=O)c2ccccc2)c[nH]c2nncc1-2`, the IC50 was over 50000 nM in assay [3]; over 25000 nM in assay [4]; 240 nM in assay [2]; 180 nM in assay [1]; over 50000 nM in assay [5]; 1100 nM in assay [6]. This molecule showed an IC50 against Protein kinase C (PKC) of over 50000 nM.
As to `O=C(c1ccccc1)c1cnc2[nH]ncc2c1OC1CCCCC1`, the IC50 in assay [2] turned out to be 600 nM; in assay [1], 660 nM.
On the same counts, the results for `CCCOc1c(C(=O)c2ccccc2)cnc2[nH]ncc12` are 220 nM and 180 nM.
Turning to `CCCCOc1c(C(=O)c2ccccc2)cnc2[nH]ncc12` [SQ-67563], the half-inhibitory concentration (IC50) in assay [4] was over 25000 nM; in assay [2] it was 150 nM; in assay [1], 110 nM; in the assay on A2780 it was 5800 nM.

These data come from ChEMBL document CHEMBL1136654, “1H-Pyrazolo[3,4-b]pyridine inhibitors of cyclin-dependent kinases” (Bioorg Med Chem Lett, 2003).
